# Measured values from patent US8075562B2, “Controlled release of biopharmaceutical growth factors from hydroxyapatite coating on bioresorbable interference screws used in cruciate ligament reconstruction surgery” (Wisconsin Alumni Research Foundation, priority 2007, dated 2011).
# “Also recorded” adds a separate entry of the source. Where two headings read alike, the source gives them in different places.
# Columns and labels:
# mesenchymal stem cells = assay: Stem cell-based bioactivity assay (alkaline phosphatase upregulation, osteogenic differentiation)
# [1] = Binding of engineered BMP-2 peptide to hydroxyapatite in solution; settings: preliminary results
# Text: Binding growth factors to calcium phosphate minerals. Characterization of binding of engineered bone morphogenetic protein-2 peptide (eBMP-2) to CaP mineral materials is characterized. […] (See, FIGS. 10 and 11). […] (See, FIGS. 12 and 13). […] BMP-2 will be used because it has a high intrinsic affinity for CaP minerals.
substance,measurement,setting,value
"KIPKA SSVPT ELSAI STLYL (KIPKASSVPTELSAISTLYL) [eBMP-2, engineered bone morphogenetic protein-2 peptide; hBMP-2: 73-92 (C78, 79S, M89T)]",osteogenic differentiation / alkaline phosphatase upregulation,mesenchymal stem cells,biologically active
same,osteogenic differentiation / alkaline phosphatase upregulation,mesenchymal stem cells; listed as e-BMP-2,promotes osteogenic differentiation
same,binding to hydroxyapatite in solution,[1],forms strong ionic bonds to hydroxyapatite; also recorded: binds to the hydroxyapatite mineral in solution
